From ChEMBL document CHEMBL1201861, “Genomics of Drug Sensitity in Cancer screening data, Wellcome Trust Sanger Institute”
pIC50: −log10 of the molar value.

Legend:
Test in all cases: cells
[1] = system: COLO-800; assay type: functional, cell-based, Homo sapiens; conditions: Homo sapiens, COLO-800;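 further: growth inhibition of COLO-800 cells, read out with a cell viability assay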
Description: SANGER: Inhibition of human COLO-800 cell growth in a cell viability assay.

[2] = system: COLO-829; assay type: functional, cell-based, Homo sapiens; conditions: Homo sapiens, COLO-829
Description: SANGER: Inhibition of human COLO-829 cell growth in a cell viability assay.

[3] = system: Ca9-22; assay type: functional, cell-based, Homo sapiens; conditions: Homo sapiens, Ca9-22;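 further: growth inhibition of Ca9-22 cells, read out with a cell viability assay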
Description: SANGER: Inhibition of human Ca9-22 cell growth in a cell viability assay.

[4] = system: Capan-2; assay type: functional, cell-based, Homo sapiens; conditions: Homo sapiens, Capan-2;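 further: Capan-2 cell growth inhibition, read out with a viability assay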
Description: SANGER: Inhibition of human Capan-2 cell growth in a cell viability assay.

[5] = system: DJM-1; assay type: functional, cell-based, Homo sapiens; conditions: Homo sapiens, DJM-1;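 further: growth inhibition of human DJM-1 cells, read out by a cell viability assay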
Description: SANGER: Inhibition of human DJM-1 cell growth in a cell viability assay.

[6] = system: DU-4475; assay type: functional, cell-based; conditions: Homo sapiens
Description: SANGER: Inhibition of human DU-4475 cell growth in a cell viability assay.

[7] = system: EFM-19; assay type: functional, cell-based, Homo sapiens; conditions: Homo sapiens, EFM-19;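 further: growth inhibition of human EFM-19 cells, measured in a cell viability assay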
Description: SANGER: Inhibition of human EFM-19 cell growth in a cell viability assay.

[8] = system: ES6; assay type: functional, cell-based, Homo sapiens; conditions: Homo sapiens, ES6;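 further: growth inhibition of human ES6 cells, read out with a cell viability assay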
Description: SANGER: Inhibition of human ES6 cell growth in a cell viability assay.

[9] = system: GAMG; assay type: functional, cell-based, Homo sapiens; conditions: Homo sapiens, GAMG;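 further: cell growth inhibition measured by a viability assay in the GAMG human cell line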
Description: SANGER: Inhibition of human GAMG cell growth in a cell viability assay.

[10] = system: HCC1419; assay type: functional, cell-based, Homo sapiens; conditions: Homo sapiens, HCC1419;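 further: growth inhibition of human HCC1419 cells, read out as cell viability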
Description: SANGER: Inhibition of human HCC1419 cell growth in a cell viability assay.

[11] = system: HCE-T; assay type: functional, cell-based, Homo sapiens; conditions: Homo sapiens, HCE-T;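 further: cell viability assay read-out, reporting inhibition of HCE-T cell growth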
Description: SANGER: Inhibition of human HCE-T cell growth in a cell viability assay.

[12] = system: KURAMOCHI; assay type: functional, cell-based; conditions: Homo sapiens;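 further: growth inhibition of KURAMOCHI cells, read out with a cell viability assay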
Description: SANGER: Inhibition of human KURAMOCHI cell growth in a cell viability assay.

[13] = system: KYSE-520 cell line; assay type: functional, cell-based, Homo sapiens; conditions: Homo sapiens, KYSE-520;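 further: growth inhibition of human KYSE-520 cells, read out with a viability assay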
Description: SANGER: Inhibition of human KYSE-520 cell growth in a cell viability assay.

[14] = system: LB2241-RCC; assay type: functional, cell-based, Homo sapiens; conditions: Homo sapiens, LB2241-RCC;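 further: cell viability assay measuring how strongly the cultured human renal carcinoma line is prevented from growing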
Description: SANGER: Inhibition of human LB2241-RCC cell growth in a cell viability assay.

[15] = system: LN-405; assay type: functional, cell-based, Homo sapiens; conditions: Homo sapiens, LN-405
Description: SANGER: Inhibition of human LN-405 cell growth in a cell viability assay.

[16] = system: LNCaP-Clone-FGC; assay type: functional, cell-based, Homo sapiens; conditions: Homo sapiens, LNCaP-Clone-FGC
Description: SANGER: Inhibition of human LNCaP-Clone-FGC cell growth in a cell viability assay.

[17] = system: LS-123; assay type: functional, cell-based, Homo sapiens; conditions: Homo sapiens, LS-123
Description: SANGER: Inhibition of human LS-123 cell growth in a cell viability assay.

[18] = system: M059J; assay type: functional, cell-based, Homo sapiens; conditions: Homo sapiens, M059J;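 further: growth inhibition of M059J cells, read out with a cell viability assay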
Description: SANGER: Inhibition of human M059J cell growth in a cell viability assay.

[19] = system: MDA-MB-157; assay type: functional, cell-based, Homo sapiens; conditions: Homo sapiens, MDA-MB-157
Description: SANGER: Inhibition of human MDA-MB-157 cell growth in a cell viability assay.

[20] = system: MIA PaCa-2; assay type: functional, cell-based, Homo sapiens; conditions: Homo sapiens, MIA PaCa-2;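 further: growth inhibition of MIA PaCa-2 cells, read out with a cell viability assay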
Description: SANGER: Inhibition of human MIA-PaCa-2 cell growth in a cell viability assay.

[21] = system: MeWo; assay type: functional, cell-based, Homo sapiens; conditions: Homo sapiens, MeWo;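 further: growth inhibition of MeWo cells, determined by a cell viability readout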
Description: SANGER: Inhibition of human Mewo cell growth in a cell viability assay.

[22] = system: NCI-H1437; assay type: functional, cell-based, Homo sapiens; conditions: Homo sapiens, NCI-H1437;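 further: growth inhibition of human NCI-H1437 cells, read out by a cell viability assay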
Description: SANGER: Inhibition of human NCI-H1437 cell growth in a cell viability assay.

[23] = system: NCI-H1793; assay type: functional, cell-based, Homo sapiens; conditions: Homo sapiens, NCI-H1793;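 further: cell growth inhibition, read out by a cell viability assay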
Description: SANGER: Inhibition of human NCI-H1793 cell growth in a cell viability assay.

[24] = system: NCI-H226; assay type: functional, cell-based, Homo sapiens; conditions: Homo sapiens, NCI-H226;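 further: cell viability read-out used to gauge growth inhibition of the cells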
Description: SANGER: Inhibition of human NCI-H226 cell growth in a cell viability assay.

[25] = system: NCI-H2452; assay type: functional, cell-based, Homo sapiens; conditions: Homo sapiens, NCI-H2452;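 further: growth inhibition of NCI-H2452 cells, read out with a cell viability assay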
Description: SANGER: Inhibition of human NCI-H2452 cell growth in a cell viability assay.

[26] = system: NCI-H510A; assay type: functional, cell-based; conditions: Homo sapiens;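 further: growth inhibition of NCI-H510A cells, read out with a cell viability assay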
Description: SANGER: Inhibition of human NCI-H510A cell growth in a cell viability assay.

[27] = system: OCUB-M; assay type: functional, cell-based, Homo sapiens; conditions: Homo sapiens, OCUB-M;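 further: growth inhibition of the cancer cell line, read out through a cell viability assay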
Description: SANGER: Inhibition of human OCUB-M cell growth in a cell viability assay.

[28] = system: OE33; assay type: functional, cell-based, Homo sapiens; conditions: Homo sapiens, OE33;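 further: growth inhibition of human OE33 cells, measured by a cell viability assay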
Description: SANGER: Inhibition of human OE33 cell growth in a cell viability assay.

[29] = system: OS-RC-2; assay type: functional, cell-based, Homo sapiens; conditions: Homo sapiens, OS-RC-2;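 further: growth inhibition of human OS-RC-2 cells, measured by a cell viability assay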
Description: SANGER: Inhibition of human OS-RC-2 cell growth in a cell viability assay.

[30] = system: OVCAR-3; assay type: functional, cell-based, Homo sapiens; conditions: Homo sapiens, OVCAR-3;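 further: growth inhibition of human OVCAR-3 cells, determined by a cell viability assay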
Description: SANGER: Inhibition of human OVCAR-3 cell growth in a cell viability assay.

[31] = system: PANC-08-13; assay type: functional, cell-based, Homo sapiens; conditions: Homo sapiens, PANC-08-13;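 further: cell growth inhibition, measured with a cell viability assay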
Description: SANGER: Inhibition of human PANC-08-13 cell growth in a cell viability assay.

[32] = system: Panc1005; assay type: functional, cell-based, Homo sapiens; conditions: Homo sapiens, Panc1005;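 further: growth inhibition of human PANC-10-05 cells, measured by a cell viability assay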
Description: SANGER: Inhibition of human PANC-10-05 cell growth in a cell viability assay.

[33] = system: PC-3; assay type: functional, cell-based, Homo sapiens; conditions: Homo sapiens, PC-3;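 further: cell viability assay measuring growth inhibition of PC-3 cells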
Description: SANGER: Inhibition of human PC-3 cell growth in a cell viability assay.

[34] = system: RD; assay type: functional, cell-based, Homo sapiens; conditions: Homo sapiens, RD
Description: SANGER: Inhibition of human RD cell growth in a cell viability assay.

[35] = system: RO82-W-1; assay type: functional, cell-based, Homo sapiens; conditions: Homo sapiens, RO82-W-1;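 further: growth inhibition of human RO82-W-1 cells, measured with a cell viability assay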
Description: SANGER: Inhibition of human RO82-W-1 cell growth in a cell viability assay.

[36] = system: SF-295; assay type: functional, cell-based, Homo sapiens; conditions: Homo sapiens, SF-295; read-out: IC50;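 further: growth inhibition of SF-295 cells, read out with a cell viability assay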
Description: SANGER: Inhibition of human SF295 cell growth in a cell viability assay.

[37] = system: SJSA-1; assay type: functional, cell-based, Homo sapiens; conditions: Homo sapiens, SJSA-1;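 further: growth inhibition of human SJSA-1 cells, read out through a cell viability measurement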
Description: SANGER: Inhibition of human SJSA-1 cell growth in a cell viability assay.

[38] = system: SK-N-DZ; assay type: functional, cell-based, Homo sapiens; conditions: Homo sapiens, SK-N-DZ;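 further: growth inhibition of the cancer cell line, read out through a viability assay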
Description: SANGER: Inhibition of human SK-N-DZ cell growth in a cell viability assay.

[39] = system: SNB-75; assay type: functional, cell-based, Homo sapiens; conditions: Homo sapiens, SNB-75;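 further: cell viability assay measuring growth inhibition of human SNB-75 cells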
Description: SANGER: Inhibition of human SNB75 cell growth in a cell viability assay.

[40] = system: SW837; assay type: functional, cell-based, Homo sapiens; conditions: Homo sapiens, SW837;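 further: growth inhibition of SW837 cells, determined with a cell viability assay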
Description: SANGER: Inhibition of human SW837 cell growth in a cell viability assay.

[41] = system: TE-1; assay type: functional, cell-based, Homo sapiens; conditions: Homo sapiens, TE-1;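 further: growth inhibition of the human TE-1 cell line, read out with a cell viability assay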
Description: SANGER: Inhibition of human TE-1 cell growth in a cell viability assay.

[42] = system: BB65-RCC; assay type: functional, cell-based, Homo sapiens; conditions: Homo sapiens, BB65-RCC;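 further: growth inhibition of the cell line, measured with a cell viability assay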
Description: SANGER: Inhibition of human BB65-RCC cell growth in a cell viability assay.

[43] = system: C2BBe1; assay type: functional, cell-based, Homo sapiens; conditions: Homo sapiens, C2BBe1;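 further: growth inhibition of C2BBe1 cells, read out through a viability assay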
Description: SANGER: Inhibition of human C2BBe1 cell growth in a cell viability assay.

[44] = system: C32; assay type: functional, cell-based, Homo sapiens; conditions: Homo sapiens, C32;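 further: cell viability assay, with IC50 reflecting inhibition of C32 cell growth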
Description: SANGER: Inhibition of human C32 cell growth in a cell viability assay.

[45] = system: CAL-39; assay type: functional, cell-based, Homo sapiens; conditions: Homo sapiens, CAL-39;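 further: cell viability assay measuring growth inhibition of CAL-39 cells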
Description: SANGER: Inhibition of human CAL-39 cell growth in a cell viability assay.

[46] = system: TE-8; assay type: functional, cell-based, Homo sapiens; conditions: Homo sapiens, TE-8;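 further: growth inhibition of TE-8 cells, measured with a cell viability readout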
Description: SANGER: Inhibition of human TE-8 cell growth in a cell viability assay.

[47] = system: U2OS; assay type: functional, cell-based, Homo sapiens, U-2-OS; conditions: Homo sapiens, U2OS;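 further: growth inhibition of human U-2-OS cells, determined with a cell viability assay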
Description: SANGER: Inhibition of human U-2-OS cell growth in a cell viability assay.

[48] = system: UACC-62; assay type: functional, cell-based, Homo sapiens; conditions: Homo sapiens, UACC-62;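 further: growth inhibition of human UACC-62 cells, read out by a cell viability assay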
Description: SANGER: Inhibition of human UACC-62 cell growth in a cell viability assay.

[49] = system: COLO-678; assay type: functional, cell-based, Homo sapiens; conditions: Homo sapiens, COLO-678
Description: SANGER: Inhibition of human COLO-678 cell growth in a cell viability assay.

Measured: pIC50

Cc1cnc(-c2cnc(NCCNc3ccc(C#N)cn3)nc2-c2ccc(Cl)cc2Cl)[nH]1 [LADUVIGLUSIB]
< 5.59: [1] | [2] | [3] | [4] | [5] | [6] | [7] | [8] | [9] | [10] | [11] | [12] | [13] | [14] | [15] | [16] | [17] | [18] | [19] | [21] | [22] | [23] | [24] | [25] | [26] | [27] | [28] | [29] | [30] | [31] | [32] | [33] | [34] | [35] | [36] | [37] | [38] | [39] | [40] | [41] | [42] | [43] | [44] | [45] | [46] | [47] | [48] | [49]
5.75: [20]

C[C@]1(O)C[C@@H](c2nc(-c3ccc4ccc(-c5ccccc5)nc4c3)c3c(N)nccn32)C1 [LINSITINIB]
5.88: [46]
5.98: [37]
6.06: [31]
6.04: [8]
< 5.59: [1] | [2] | [3] | [4] | [5] | [6] | [7] | [9] | [10] | [11] | [12] | [13] | [14] | [15] | [16] | [17] | [18] | [19] | [20] | [21] | [22] | [23] | [24] | [25] | [26] | [27] | [28] | [29] | [30] | [32] | [33] | [35] | [36] | [39] | [40] | [42] | [43] | [44] | [45] | [47] | [48] | [49]
5.77: [41]
5.90: [34]
6.63: [38]

O=C(c1cc(Cc2n[nH]c(=O)c3ccccc23)ccc1F)N1CCN(C(=O)C2CC2)CC1 [OLAPARIB]
< 5.30: [2] | [3] | [4] | [5] | [6] | [7] | [8] | [9] | [10] | [11] | [12] | [13] | [14] | [15] | [16] | [17] | [18] | [19] | [20] | [21] | [22] | [23] | [24] | [25] | [27] | [28] | [29] | [30] | [31] | [32] | [33] | [34] | [35] | [36] | [37] | [38] | [39] | [40] | [41] | [42] | [43] | [44] | [45] | [46] | [47] | [48] | [49]
6.35: [1]
5.42: [26]
